Source: the NIST ThermoML archive (doi:10.1016/j.jct.2013.05.047)
Where “and” joins values, the source holds several entries; their conditions need not be identical. Equal entries are not always repeated.

Tests used:
[1] = for vapor or sublimation pressure: Closed cell (Static) method
[2] = Molar enthalpy of transition or fusion; details: Crystal; DSC

Oc1ccc(F)cc1 [4-fluorophenol]
[1]
Details	Normal melting temperature [°C]	vapor or sublimation pressure [kPa]
265.62 K, Crystal	–	0.00084
267.58 K, Crystal	–	0.00108
269.54 K, Crystal	–	0.00137
271.5 K, Crystal	–	0.00174
273.49 K, Crystal	–	0.00222
275.43 K, Crystal	–	0.00279
277.43 K, Crystal	–	0.00353
279.39 K, Crystal	–	0.00443
281.38 K, Crystal	–	0.00555
283.36 K, Crystal	–	0.00696
285.33 K, Crystal	–	0.00863
287.34 K, Crystal	–	0.01071
289.29 K, Crystal	–	0.01329
291.3 K, Crystal	–	0.01648
291.39 K, Liquid	–	0.02895
293.29 K, Crystal	–	0.02028
293.35 K, Liquid	–	0.03339
295.26 K, Crystal	–	0.02476
295.34 K, Liquid	–	0.0394
297.24 K, Crystal	–	0.03044
297.32 K, Liquid	–	0.04637
299.25 K, Crystal	–	0.03741
299.25 K, Liquid	–	0.05448
301.19 K, Crystal	–	0.04503
301.24 K, Liquid	–	0.06387
303.21 K, Crystal	–	0.05518
303.22 K, Liquid	–	0.07471
305.19 K, Crystal	–	0.06658
305.24 K, Liquid	–	0.08751
307.18 K, Crystal	–	0.08105
307.21 K, Liquid	–	0.1019
309.16 K, Crystal	–	0.09599
309.2 K, Liquid	–	0.1187
311.12 K, Crystal	–	0.1152
311.17 K, Liquid	–	0.1369
313.11 K, Crystal	–	0.1383
313.15 K, Liquid	–	0.1588
315.06 K, Liquid	–	0.1811
315.1 K, Crystal	–	0.1647
317.01 K, Liquid	–	0.2084
317.07 K, Crystal	–	0.197
319.02 K, Liquid	–	0.2365
321.01 K, Liquid	–	0.2738
323.1 K, Liquid	–	0.3152
325.09 K, Liquid	–	0.3611
327.06 K, Liquid	–	0.4129
329.05 K, Liquid	–	0.4644
331.02 K, Liquid	–	0.5332
333.01 K, Liquid	–	0.5995
335 K, Liquid	–	0.6828
336.96 K, Liquid	–	0.7646
338.93 K, Liquid	–	0.8651
340.78 K, Liquid	–	0.9558
342.84 K, Liquid	–	1.084
Crystal, DTA	47.2	–

Details	Molar enthalpy of transition or fusion [kcal/mol]
[2]	3.47

Oc1ccc(Br)cc1 [4-bromophenol]
vapor or sublimation pressure, [1]
Details	Crystal	Liquid
285.34 K	0.00035 kPa	–
287.33 K	0.00046 kPa	–
289.29 K	0.00057 kPa	–
291.33 K	0.00073 kPa	–
293.31 K	0.00092 kPa	–
295.29 K	0.00116 kPa	–
297.25 K	0.00146 kPa	–
299.23 K	0.00182 kPa	–
301.2 K	0.00229 kPa	–
303.18 K	0.00286 kPa	–
303.2 K	–	0.00555 kPa
305.19 K	0.00358 kPa	–
305.2 K	–	0.00661 kPa
307.17 K	0.00441 kPa	–
307.18 K	–	0.00784 kPa
309.12 K	0.00541 kPa and 0.0054 kPa	–
309.17 K	–	0.00932 kPa
311.05 K	0.00664 kPa	–
311.16 K	–	0.01099 kPa
313.09 K	0.00818 kPa	–
313.12 K	–	0.01288 kPa
315.08 K	0.01002 kPa	–
315.09 K	–	0.01516 kPa
316.89 K	–	0.01755 kPa
317.09 K	0.01219 kPa	–
318.6 K	–	0.02013 kPa
319.01 K	0.01482 kPa	–
320.72 K	–	0.02383 kPa
320.99 K	0.01805 kPa	–
323.03 K	0.02185 kPa	0.02842 kPa
324.98 K	0.02644 kPa	–
325.02 K	–	0.03304 kPa
326.97 K	0.03198 kPa	0.03827 kPa
328.93 K	0.03838 kPa	–
328.95 K	–	0.04429 kPa
330.89 K	–	0.05121 kPa
330.93 K	0.0461 kPa	–
332.9 K	–	0.05904 kPa
334.9 K	–	0.06804 kPa
336.81 K	–	0.07806 kPa
338.78 K	–	0.0882 kPa
340.82 K	–	0.1022 kPa
342.8 K	–	0.1163 kPa
344.73 K	–	0.132 kPa
346.82 K	–	0.1517 kPa
348.66 K	–	0.1712 kPa
350.78 K	–	0.1945 kPa
352.64 K	–	0.2188 kPa
354.73 K	–	0.2475 kPa
356.58 K	–	0.2774 kPa
358.68 K	–	0.3129 kPa
360.5 K	–	0.3497 kPa
362.61 K	–	0.3938 kPa
364.5 K	–	0.4391 kPa
366.58 K	–	0.4925 kPa
368.3 K	–	0.549 kPa
370.51 K	–	0.6102 kPa

Details	Molar enthalpy of transition or fusion [kcal/mol]
[2]	4.04
